What all share (assay type): cell-based
One data set relates to MDA-MB-231. Put plainly: MTT cytotoxicity assay, breast cancer cell line MDA-MB-231. On the technique in general: Formazan colour is commonly taken as a measure of viable cells.
In data set [1] the test system is breast cancer cell line MDA-MB-231. As to the kind of experiment: Microscopy images of breast cancer cells MDA-MB-231. The settings on record: for concentration showing apoptotic signs (shrinkage, cell detachment, membrane blebbing): 24 hours of incubation.
In data set [2] the test system is lung cancer cell line A549. Put plainly: Microscopy images of lung cancer cells A549. The settings on record: for cytotoxicity against lung cancer cells (microscopy): with and without copper(II) 10 μM, boosted by adding copper.
Another data set has as its system H630 R10. As to the kind of experiment: MTT cytotoxicity assay, colorectal cancer cell line H630 R10 (resistant to 5FU 10 μM). The note with it: 72 h. Here is the method: (§1) The H630 WT (passage 12-21) and H630 R10 (passage 4-13) cells were seeded in 96-well plates at seeding density of 1×10^4 cells/well in Dulbecco's modified Eagle's medium (DMEM) with 10% FBS, 1 mM sodium pyruvate, 2 mM L-glutamine and 0.1 mM non-essential amino acids. Cells were incubated at 37° C., 5% CO2 and 95% relative humidity. Cells were constantly exposed to different concentrations of the tested compound in combination with 10 μM of CuCl2 for 72 h and then subjected to a standard 3-(4,5-Dimethylthiazol-2-yl)-2,5-Diphenyltetrazolium bromide (MTT) assay. The experiments were carried out in triplicates and the IC50 values were calculated (see FIG. 2).
5FU was purchased from Sigma Aldrich, Dorset, UK.

The next data set relates to A549. As to the kind of experiment: MTT cytotoxicity assay, lung cancer cell line A549.
In another data set the test system is H630 WT. As to the kind of experiment: MTT cytotoxicity assay, colorectal cancer cell line H630 WT. The note with it: 72 h. Here is the method: as §1
Data set [3] deals with colorectal cancer cell line H630 WT. Put plainly: Microscopy images of colorectal cancer cells H630 WT. The settings on record: 500 μM, copper(II) 10 μM, 72 hours.
Setting [4] is: comparative agent as listed, no added metal named.
Setting [5] is: Homo sapiens, NCI-H630, with Cu (10 μM CuCl2).
[6] abbreviates: Homo sapiens, MDA-MB-231, 72 h, with Cu (10 μM CuCl2).
Where [7] appears, read: Homo sapiens, MDA-MB-231, 72 h, without copper(II).
Where [8] appears, read: Homo sapiens, A549, 72 h, with Cu (10 μM CuCl2).
The mark [9] stands for this setting: Homo sapiens, NCI-H630, comparative agent as listed, no added metal named.

Where only a bound is given, the exact number is not on record here.

Usually IC50 stands for the concentration that gives 50% inhibition. In the case of `CCN(CC)C(=S)SC1O[C@H](CO)[C@@H](O)[C@H](O)[C@H]1O` (stereo in doubt) [Ga-DDC, Galactosyl diethyldithiocarbamate], it took 17.7 ± 8.2 µM to reach half-maximal inhibition with MDA-MB-231 (with Cu (10 μM CuCl2), 72 h) (IC50).
With `O=CC[C@@H](O)[C@H](O)[C@H](O)CO` [2-deoxy-glucose, reference compound], the features of apoptosis result in data set [1] (1000 μM, with copper(II) 10 μM, 24 hours) is on record as “no features of apoptosis”. For the same compound, the “concentration showing slight toxicity effect (cells started to detach)” value in data set [1] (without copper(II), 24 hours) is recorded as 8 mM; in data set [2] (without copper(II), 24 hours) it was 8 mM. The “cytotoxic effect (microscopy)” value in data set [2] (1 mM, with or without copper(II), 72 h) was “no cytotoxic effect”.
For the compound `CCN(CC)C(=S)[S-].CCN(CC)C(=S)[S-].[Cu+2]` [(DDC)2Cu, Cu(II) bis(N,N-diethyldithiocarbamate) complex, reference compound], the IC50 came out at 4.9 ± 1.6 µM in the data set with H630 R10 (setting [4]); 3.6 ± 0.7 µM in the data set with A549 (comparative agent as listed, no added metal named, 72 h); 5.9 ± 1.1 µM in the data set on H630 WT (setting [4]).
In the case of `CCN(CC)C(=S)SC1OC(CO)C(O)C(O)C1NC(C)=O` (stereo not shown) [AG-DDC, 2-N-acetyl-glycosylamine diethyldithiocarbamate], the concentration for half-maximal inhibition (IC50) with H630 WT (setting [5]) was found to be 5.8 ± 1.2 µM.
Turning to `CCN(CC)C(=S)SC1CC(O)C(O)C(CO)O1` (stereo not shown) [DG-DDC, 2-Deoxy-glycosyl diethyldithiocarbamate], the IC50 with MDA-MB-231 (setting [6]) is 3.62 ± 0.22 µM; in the data set with MDA-MB-231 (setting [7]) it was 2060 ± 54.7 µM; with H630 R10 (setting [5]) it was 5.3 ± 0.9 µM; in the data set on A549 (setting [8]), 2.79 ± 0.25 µM; in the data set with A549 (Homo sapiens, A549, 72 h, with Zn (ZnCl2 10 μM)), 49.6 ± 18.6 µM; with H630 WT (setting [5]) it was 5.2 ± 1.7 µM. In addition, the “concentration showing apoptotic signs (shrinkage, cell detachment, membrane blebbing)” value in data set [1] (with copper(II) 10 μM) was found to be 25 µM. Moreover, the “toxic effect compared to glycosyl diethyldithiocarbamate at similar concentrations” value was “more toxic effect” in data set [1] (without copper(II), 24 hours) and “more toxic effect” in data set [2] (without copper(II), 24 hours). Besides, the “observation in cells (microscopy)” value in data set [3] is reported as “Cu(II) bis(N,N-diethyldithiocarbamate) complex crystals”. The “cytotoxicity against lung cancer cells (microscopy)” value in data set [2] (72 h) is reported as “cytotoxic”.
For `CCN(CC)C(=S)SSC(=S)N(CC)CC` [DS, disulfiram, reference compound], the IC50 in the data set on MDA-MB-231 (setting [7]) was greater than 8000 µM.
As to `O=c1[nH]cc(F)c(=O)[nH]1` [Example 5FU, fluorouracil, reference compound], the IC50 in the data set on H630 R10 (setting [9]) came to 462 ± 8 µM; with H630 WT (setting [9]), 4.6 ± 1.6 µM.
Regarding `CCN(CC)C(=S)SC1O[C@H](CO)[C@@H](O)[C@H](O)[C@H]1O` (stereo partly shown) [G-DDC, Glycosyl diethyldithiocarbamate], the IC50 with MDA-MB-231 (setting [7]) stood at 2180 ± 356 µM; in the data set with MDA-MB-231 (with Cu (10 μM CuCl2), 72 h), 348 ± 44.7 µM; with A549 (setting [8]), 95.9 ± 21.3 µM; in the data set on H630 WT (setting [5]), 127 ± 13.2 µM. Also, in data set [1] (with copper(II) 10 μM), the “concentration showing apoptotic signs (shrinkage, cell detachment, membrane blebbing)” value came to 250 µM. Also, the “concentration showing signs of apoptosis (shrinkage, cell detachment)” value in data set [1] (without copper(II), 24 hours) is recorded as 8 mM; in data set [2] (without copper(II), 24 hours), 8 mM. The “concentration showing slight toxicity effect (cells started to detach)” value came out at 4 mM in data set [1] (without copper(II), 24 hours) and 4 mM in data set [2] (without copper(II), 24 hours). Further, the “cytotoxicity against lung cancer cells (microscopy)” value in data set [2] (72 h) is “cytotoxic”.
`CCN(CC)C(=S)SC1O[C@H](CO)[C@@H](O[C@@H]2O[C@H](CO)[C@H](O)[C@H](O)[C@H]2O)[C@H](O)[C@H]1O` (stereo partly shown) [La-DDC, Lactosyl diethyldithiocarbamate]: 89.7 ± 12.6 µM corresponded to half-maximal inhibition in the data set on MDA-MB-231 (setting [6]) (IC50).
On the same count and under the same terms, with `CCN(CC)C(=S)SC1O[C@H](CO)[C@@H](O)[C@H](O)[C@@H]1O` (stereo partly shown) [Ma-DDC, Mannosyl diethyldithiocarbamate] the figure was 78.6 ± 12.6 µM.
In the data set on A549 (setting [8]), `CCN(CC)C(=S)SC1O[C@H](COC(C)=O)[C@@H](OC(C)=O)[C@H](OC(C)=O)[C@H]1OC(C)=O` (stereo partly drawn) [Tetra-DDC, β-D-glucopyranose, 1-thio-, 2,3,4,6-tetraacetate 1-(N,N-diethylcarbamodithioate)] displayed an IC50 of 53.4 ± 11.5 µM.
`CCN(CC)C(=S)SC1OC[C@@H](O)[C@H](O)[C@H]1O` (stereo partly shown) [XY-DDC, Xylosyl diethyldithiocarbamate]: the IC50 with H630 WT (setting [5]) came to 6.9 ± 2.6 µM.

The values are drawn from patent US20250325573A1, “Anti-Cancer Saccharide-Linked Dithiocarbamate Compounds” (Anglia Ruskin University Higher Education Corporation, priority 2022, published 2025).
